Assay results published in US8992674B2, “Ink, ink cartridge and ink jet recording method” (Canon Kabushiki Kaisha, priority 2012, dated 2015).

Experiment: Measurement of Δλmax (UV-Vis absorption spectra in 20.0% 1,2-hexanediol aqueous solution and in water)
Format: physicochemical
Conditions: for λmaxD: maximum absorption wavelength in 20.0% by mass aqueous solution of 1,2-hexanediol; for λmaxD / λmaxW: coloring material 0.002 to 0.005%; for λmaxW: maximum absorption wavelength in ion-exchange water; for Δλmax: λmaxD−λmaxW
Excerpt: Specifically, the ink according to the present invention contains a first coloring material and a second coloring material satisfying the following conditions. […] Further, the sum of the Δλmax1 and the Δλmax2 needs to be 35.0 or less. λmax refers to a maximum absorption wavelength in the visible region (380 to 750 nm) in a UV-Vis absorption spectrum of a coloring material, and can be measured using a spectrophotometer.
In a coloring material in which an associating state and a non-associating state are concurrently present, the absorption spectrum has a plurality of maximal-absorption wavelengths in some cases. Then, respective peak shapes (heights) at the maximal-absorption wavelengths representing the associating state and the non-associating state vary depending on a liquid medium to be used in some cases. The maximum absorption wavelength in the present invention means the following. That is, even in the case where a maximum absorption wavelength in an absorption spectrum in 20.0% by mass aqueous solution of 1,2-hexanediol shifts based on an absorption spectrum in water, a peak originated from a maximum absorption wavelength in water is taken as the maximum absorption wavelength. […] In the present invention, since it is important to consider the shift of a wavelength giving a highest absorbance, a maximum absorption wavelength in 20.0% by mass aqueous solution of 1,2-hexanediol is considered to be a maximal-absorption wavelength on a larger wavelength side, which is a peak originated from a maximum absorption wavelength in water.
For each coloring material, the difference Δλmax (=λmaxD−λmaxW) between a maximum absorption wavelength (λmaxD) in a 20.0% by mass aqueous solution of 1,2-hexanediol and a maximum absorption wavelength (λmaxW) in water in UV-Vis absorption spectra was measured. λmaxD and λmaxW were measured by diluting each coloring material by using a 20.0% by mass aqueous solution of 1,2-hexanediol or ion-exchange water so that the content of the coloring material became 0.002 to 0.005%. The measurement condition is shown below. Then, the value Δλmax=λmaxD−λmaxW was determined from the measurement. Here, the unit of λmax is “nm.”
Spectrophotometer: a self-recording spectrophotometer (trade name “U-3300,” made by Hitachi, Ltd.)
Measurement cell: 1-cm quartz cell
Sampling interval: 0.1 nm
Scanning speed: 30 nm/min

Row | Compound | λmaxD [nm] | λmaxW [nm] | Δλmax [nm]
1 | CC(C)(C)c1nn(-c2cc(C(=O)O)cc(C(=O)O)c2)c(N)c1N=Nc1nnc(SCCSc2nnc(N=Nc3c(C(C)(C)C)nn(-c4cc(C(=O)O)cc(C(=O)O)c4)c3N)s2)s1 [yellow coloring material 1] | 451.5 | 427.5 | 24.0
2 | Cn1c(=O)c(C(=O)c2cccc(S(=O)(=O)O)c2)c2c3c(c(Nc4cc(Nc5nc(NCCNc6nc(Nc7cc(Nc8ccc9c%10c8C(=O)c8ccccc8-c%10c(C(=O)c8cccc(S(=O)(=O)O)c8)c(=O)n9C)c(S(=O)(=O)O)cc7S(=O)(=O)O)nc(Oc7ccc(S(=O)(=O)O)cc7)n6)nc(Oc6ccc(S(=O)(=O)O)cc6)n5)c(S(=O)(=O)O)cc4S(=O)(=O)O)ccc31)C(=O)c1ccccc1-2 [magenta coloring material 2] | 512.0 | 508.5 | 3.5
3 | Cc1cc(Nc2nc(NCCS(=O)(=O)O)nc(Nc3ccc(N=Nc4ccc(N=Nc5ccc(S(=O)(=O)O)cc5)cc4S(=O)(=O)O)c(C)c3)n2)ccc1N=Nc1ccc(N=Nc2ccc(S(=O)(=O)O)cc2)cc1S(=O)(=O)O [yellow coloring material 3] | 408.0 | 417.0 | −9.0
4 | COc1cc(N=Nc2cccc(S(=O)(=O)O)c2)ccc1NC(=O)Nc1ccc(N=Nc2cccc(S(=O)(=O)O)c2)cc1OC [C.I. Direct Yellow 132] | 411.0 | 405.5 | 5.5
5 | Cc1ccc(S(=O)(=O)Nc2cc(S(=O)(=O)[O-])cc3cc(S(=O)(=O)[O-])c(N=Nc4cc(Cl)ccc4Oc4ccccc4)c(O)c23)cc1.[Na+].[Na+] [C.I. Acid Red 249] | 520.0 | 524.0 | −4.0
6 | Nc1cc2c(O)c(N=Nc3ccc(N=Nc4ccc(S(=O)(=O)[O-])cc4)c4ccc(S(=O)(=O)[O-])cc34)c(S(=O)(=O)[O-])cc2cc1S(=O)(=O)[O-].[Na+].[Na+].[Na+].[Na+] [C.I. Food Black 2] | 595.0 | 585.5 | 9.5
7 | Cc1c(C#N)c(Nc2ccc(S(=O)(=O)O)cc2)nc(Nc2ccc(S(=O)(=O)O)cc2)c1N=Nc1nc(-c2ccc3ccccc3c2)c(N=Nc2cc(S(=O)(=O)O)c3cc(S(=O)(=O)O)cc(S(=O)(=O)O)c3c2)s1 [black coloring material 4] | 604.0 | 604.0 | 0.0
8 | C.I. Direct Yellow 86 | 399.0 | 380.0 | 19.0
9 | O=C(O)c1nn(-c2ccc(S(=O)(=O)O)cc2)c(O)c1N=Nc1ccc(S(=O)(=O)O)cc1 [C.I. Acid Yellow 23] | 430.5 | 427.0 | 3.5
10 | COc1cc(N=Nc2cccc(S(=O)(=O)O)c2)ccc1Nc1nc(NCCS(=O)(=O)O)nc(Nc2ccc(N=Nc3cccc(S(=O)(=O)O)c3)cc2OCCCS(=O)(=O)O)n1 [yellow coloring material 4] | 382.0 | 391.5 | −9.5
11 | CCc1cc(C)c(S(=O)(=O)O)c(CC)c1Nc1nc(N(c2nc3ccc(S(=O)(=O)O)cc3s2)c2c(CC)cc(C)c(S(=O)(=O)O)c2CC)cc(C)c1N=Nc1c(C#N)c(C(C)(C)C)nn1-c1nc2ccc(S(=O)(=O)O)cc2s1 [magenta coloring material 1] | 559.5 | 555.0 | 4.5
12 | Cc1c(C#N)c(Nc2ccc(S(=O)(=O)O)cc2)nc(Nc2ccc(S(=O)(=O)O)cc2)c1N=Nc1sc(N=Nc2ccccc2C#N)c(-c2ccc(Nc3nc(NCCS(=O)(=O)O)nc(Nc4cc(S(=O)(=O)O)ccc4S(=O)(=O)O)n3)cc2)c1C#N [black coloring material 1] | 630.5 | 605.5 | 25.0
